We go through four compounds from patent publication US12000819B2, “Gas concentration prediction method” (DAIKIN INDUSTRIES, LTD., priority 2018, dated 2024).

This data set in a line: Concentration of gas dissolved in cell culture liquid or pure water after bubbling, measured by gas chromatography. The data set is classed as physicochemical. As to conditions: for Correction coefficient α: ratio of average gas concentrations in cell culture liquid and pure water. Here is the method:
The gas shown in Table 1 was bubbled at 20 mL/min for 1 minute in 5 mL of a cell culture medium (liquid containing 6.4 g/L of sodium chloride, 4.7 g/L of D-glucose, 3.7 g/L of sodium bicarbonate, L-lysine hydrochloride, 0.84 g/L of L-arginine hydrochloride, 0.58 g/L of L-glutamine, and 0.3 g/L of calcium chloride) or in 5 mL of purified water, at a liquid temperature of 23° C.; and dissolved. Subsequently, the concentration of a gas dissolved in the cell culture liquid or pure water was measured by gas chromatography (Shimadzu Corporation). Each measurement was repeated three times, and the average gas concentration was calculated. The correction coefficient α was then obtained by dividing the average gas concentration in the cell culture liquid by the average gas concentration in the pure water.
At a later date, the same measurements as above were performed, and the correction coefficient was calculated in the same manner.

[1] abbreviates: Table 1, gas bubbled at 20 mL/min for 1 minute in 5 mL cell culture medium, liquid temperature 23° C., average of three measurements.
Where [2] appears, read: Table 1, gas bubbled at 20 mL/min for 1 minute in 5 mL purified water, liquid temperature 23° C., average of three measurements.
Where [3] appears, read: Table 2, repeated at a later date.
The mark [4] stands for this setting: Table 2, same measurements repeated at a later date, cell culture medium, 23° C.
[5] abbreviates: Table 2, same measurements repeated at a later date, purified water, 23° C.

Take `C=C(F)C(F)(F)F` [CF3—CF═CH2]: the “Gas concentration, Cell culture liquid” value under setting [1] worked out at 262 ppm and the “Gas concentration, Cell culture liquid” value under setting [4] amounted to 288 ppm. The “Gas concentration, Pure water” value runs as follows: under setting [2], 331 ppm; under setting [5], 360 ppm. Besides, the “Correction coefficient α” value is, setting by setting: (Table 1) 1.26; under setting [3], 1.25.

`FCF` [CH2F2]: the “Gas concentration, Cell culture liquid” value under setting [1] is given as 2972 ppm and the “Gas concentration, Cell culture liquid” value under setting [4] was 2701 ppm. For the same compound, the “Gas concentration, Pure water” value under setting [2] stood at 4140 ppm and the “Gas concentration, Pure water” value under setting [5] is listed as 3673 ppm. In addition, the “Correction coefficient α” value runs as follows: (Table 1) 1.39; under setting [3], 1.36.

As to `FCC(F)(F)F` [CH2F—CF3], the “Gas concentration, Cell culture liquid” value by setting is: under setting [1], 529 ppm; under setting [4], 599 ppm. The “Gas concentration, Pure water” value came to 656 ppm under setting [2] and 755 ppm under setting [5]. In addition, the “Correction coefficient α” value worked out at 1.24 (Table 1) and 1.26 under setting [3].

Consider `FC(F)Cl` [CHF2Cl], for which the “Gas concentration, Cell culture liquid” value under setting [1] was 1785 ppm and the “Gas concentration, Cell culture liquid” value under setting [4] was found to be 1820 ppm. Further, the “Gas concentration, Pure water” value is, setting by setting: under setting [2], 2399 ppm; under setting [5], 2421 ppm. Moreover, the “Correction coefficient α” value came out at 1.34 (Table 1) and 1.33 under setting [3].
